Here are results for 16 molecules from patent US9399646B2 (Genentech, Inc., priority 2010, dated 2016).

By IC50 is commonly meant the concentration at which inhibition is half-maximal. Read a low IC50 as inhibition by little substance.

The subject of one experiment is MCF-7 cells. In words: Breast cancer cell viability assay (CellTiter-Glo, 5 days). Type of experiment: cell-based. The note with it: 5 days' compound exposure; for IC50: Homo sapiens, MCF7, 120 h. In a few lines: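 MCF-7 cells, 320 per well in RPMI with 10% FBS and 20 mM HEPES, adhered overnight, then exposed 5 days to an eleven-point semilog dilution (final 0.3-0.000003 μM). CellTiter-Glo luminescence read; % viability = (sample − cell-free background)/(untreated − background) × 100.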
A general note: In ATP-based viability assays light output follows the ATP content of the culture.

For the next experiment, the target named is T1, ER-α in MCF-7 cells (Homo sapiens, UniProt P03372).
T1 sequence (P03372 1-595): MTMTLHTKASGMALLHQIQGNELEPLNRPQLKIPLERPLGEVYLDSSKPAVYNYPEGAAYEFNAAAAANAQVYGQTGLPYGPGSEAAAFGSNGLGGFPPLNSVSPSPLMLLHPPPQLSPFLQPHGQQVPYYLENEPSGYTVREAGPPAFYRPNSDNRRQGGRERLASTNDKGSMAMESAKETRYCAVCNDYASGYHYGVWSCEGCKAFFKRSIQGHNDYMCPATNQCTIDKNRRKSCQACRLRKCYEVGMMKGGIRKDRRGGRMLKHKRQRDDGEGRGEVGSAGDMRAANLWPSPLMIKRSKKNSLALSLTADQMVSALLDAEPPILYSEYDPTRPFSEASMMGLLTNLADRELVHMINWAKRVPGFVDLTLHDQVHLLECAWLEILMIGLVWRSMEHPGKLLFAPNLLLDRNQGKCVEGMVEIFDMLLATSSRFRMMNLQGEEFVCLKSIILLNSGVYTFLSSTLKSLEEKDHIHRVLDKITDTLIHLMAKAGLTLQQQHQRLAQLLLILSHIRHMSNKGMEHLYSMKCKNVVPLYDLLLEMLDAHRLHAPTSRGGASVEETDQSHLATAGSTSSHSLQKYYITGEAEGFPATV
In words: Breast cancer cell ER-α in cell western assay (SP1). Format: cell-based. To be noted: 4 or 24 hr post compound addition; for Emax: MCF7, SP1 antibody, read-out: ER-α In Cell Western Assay (SP1) Max Response; for DC50: SP1 antibody, read-out: ER-α In Cell Western Assay (SP1) IC50. On the set-up: endogenous in cells; host or cells: MCF-7. In a few lines:
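Percent remaining ER: SP1 immunofluorescence normalized to DRAQ5 nuclear stain, compared with untreated controls. Treatment lasted 4 or 24 hr across 0.3–0.000003 μM final in MCF-7.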

In the case of `CC/C(=C(/c1ccc(/C=C/C(=O)O)cc1)c1ccc2[nH]ncc2c1)c1ccc2c(c1)OCCO2` [Compound 250, (E)-3-(4-((E)-2-(2,3-Dihydrobenzo[b][1,4]dioxin-6-yl)-1-(1H-indazol-5-yl)but-1-en-1-yl)phenyl)acrylic acid], in the experiment with MCF-7 cells, the “MCF7 Viability Assay Max Response” value is reported as “++ (++ = a single % value ≧ 40%)” and the concentration for half-maximal inhibition (IC50) is ≤ 100 nM. On ER-α in MCF-7 cells, the Emax is ≥ 40% and the DC50 is ≤ 100 nM.

With `CC/C(=C(/c1ccc(/C=C/C(=O)NS(=O)(=O)Cc2ccccc2)cc1)c1ccc2[nH]ncc2c1)c1ccc(F)cc1Cl` [Compound 429, (E)-N-(Benzylsulfonyl)-3-(4-((E)-2-(2-chloro-4-fluorophenyl)-1-(1H-indazol-5-yl)but-1-en-1-yl)phenyl)acrylamide], in the experiment with MCF-7 cells, the “MCF7 Viability Assay Max Response” value is listed as “++ (++ = a single % value ≧ 40%)” and the IC50 is ≤ 100 nM. At ER-α in MCF-7 cells, the Emax is ≥ 40% and the DC50 was ≤ 100 nM.

Consider `CC/C(=C(/c1ccc(/C=C/C(=O)O)cc1)c1ccc2ccncc2c1)c1ccccc1` [Compound 168, (E)-3-(4-((E)-1-(Isoquinolin-7-yl)-2-phenylbut-1-en-1-yl)phenyl)acrylic acid], for which, in the experiment with MCF-7 cells, the “MCF7 Viability Assay Max Response” value is on record as “++ (++ = a single % value ≧ 40%)” and the concentration for half-maximal inhibition (IC50) is > 100 nM. In addition, on ER-α in MCF-7 cells, the Emax is ≥ 40% and the DC50 is > 100 nM.

Take `Cc1cscc1/C(=C(\c1ccc(/C=C/c2nn[nH]n2)cc1)c1ccc2scnc2c1)C1CCC1` [Compound 448, 5-((E)-1-(4-((E)-2-(2H-Tetrazol-5-yl)vinyl)phenyl)-2-cyclobutyl-2-(4-methylthiophen-3-yl)vinyl)benzo[d]thiazole]: in the experiment on MCF-7 cells, the “MCF7 Viability Assay Max Response” value is “++ (++ = a single % value ≧ 40%)” and the half-maximal inhibitory concentration (IC50) is ≤ 100 nM. Further, on ER-α in MCF-7 cells, the Emax was ≥ 40% and the DC50 is ≤ 100 nM.

`O=C(O)/C=C/c1ccc(/C(=C(\c2ccccc2)C2CCC2)c2ccc3scnc3c2)cc1` [Compound 286, (E)-3-(4-((E)-1-(Benzo[d]thiazol-5-yl)-2-cyclobutyl-2-phenylvinyl)phenyl)acrylic acid]: in the experiment with MCF-7 cells, the “MCF7 Viability Assay Max Response” value is “++ (++ = a single % value ≧ 40%)” and the IC50 is ≤ 100 nM. Moreover, on ER-α in MCF-7 cells, the Emax is ≥ 40% and the DC50 is ≤ 100 nM.

In the case of `O=C(O)/C=C/c1ccc(/C(=C(\c2ccc(F)cc2Cl)C2CCC2)c2ccc3nccn3c2)cc1` [Compound 311, (E)-3-(4-((E)-2-(2-Chloro-4-fluorophenyl)-2-cyclobutyl-1-(imidazo[1,2-a]pyridin-6-yl)vinyl)phenyl)acrylic acid], in the experiment on MCF-7 cells, the “MCF7 Viability Assay Max Response” value was “++ (++ = a single % value ≧ 40%)” and the IC50 is ≤ 100 nM. On ER-α in MCF-7 cells, the Emax was ≥ 40% and the DC50 was ≤ 100 nM.

As for `O=C(/C=C/c1ccc(/C(=C(\c2ccccc2)C2CCC2)c2ccc3[nH]nc(F)c3c2)cc1)NCC(F)(F)F` [Compound 415, (E)-3-(4-((E)-2-Cyclobutyl-1-(3-fluoro-1H-indazol-5-yl)-2-phenylvinyl)phenyl)-N-(2,2,2-trifluoroethyl)acrylamide], in the experiment with MCF-7 cells, the “MCF7 Viability Assay Max Response” value is recorded as “++ (++ = a single % value ≧ 40%)” and the 50% inhibitory concentration (IC50) is ≤ 100 nM. Also, at ER-α in MCF-7 cells, the Emax is ≥ 40% and the DC50 is ≤ 100 nM.

As to `CC/C(=C(/c1ccc(/C=C/C(=O)O)cc1)c1ccc2[nH]ncc2c1)c1ccncc1F` [Compound 231, (E)-3-(4-((E)-2-(3-Fluoropyridin-4-yl)-1-(1H-indazol-5-yl)but-1-en-1-yl)phenyl)acrylic acid], in the experiment with MCF-7 cells, the “MCF7 Viability Assay Max Response” value is on record as “++ (++ = a single % value ≧ 40%)” and the IC50 is ≤ 100 nM. Further, on ER-α in MCF-7 cells, the Emax is ≥ 40% and the DC50 was ≤ 100 nM.

In the case of `CC/C(=C(/c1ccc(/C=C/C(=O)O)cc1)c1ccc2[nH]ncc2c1F)c1cccc(OC2CCOCC2)c1` [Compound 344, (E)-3-(4-((E)-1-(4-Fluoro-1H-indazol-5-yl)-2-(3-((tetrahydro-2H-pyran-4-yl)oxy)phenyl)but-1-en-1-yl)phenyl)acrylic acid], in the experiment with MCF-7 cells, the “MCF7 Viability Assay Max Response” value is recorded as “++ (++ = a single % value ≧ 40%)” and the IC50 was > 100 nM. At ER-α in MCF-7 cells, the Emax is ≥ 40% and the DC50 is ≤ 100 nM.

`CC/C(=C(/c1ccc(/C=C/C(=O)O)cc1)c1ccc2[nH]ncc2c1)c1cccc(Oc2cccnc2)c1` [Compound 365, (E)-3-(4-((E)-1-(1H-Indazol-5-yl)-2-(3-(pyridin-3-yloxy)phenyl)but-1-en-1-yl)phenyl)acrylic acid]: in the experiment with MCF-7 cells, the “MCF7 Viability Assay Max Response” value is reported as “++ (++ = a single % value ≧ 40%)” and the IC50 was ≤ 100 nM. Moreover, at ER-α in MCF-7 cells, the Emax is ≥ 40% and the DC50 was ≤ 100 nM.

Turning to `CC/C(=C(/c1ccc2c(c1)CC(C(=O)O)C2)c1ccc2[nH]ncc2c1)c1ccccc1` (stereo not drawn) [Compound 192, (E)-5-(1-(1H-Indazol-5-yl)-2-phenylbut-1-en-1-yl)-2,3-dihydro-1H-indene-2-carboxylic acid], in the experiment on MCF-7 cells, the “MCF7 Viability Assay Max Response” value is given as “++ (++ = a single % value ≧ 40%)” and the 50% inhibitory concentration (IC50) is > 100 nM. In addition, at ER-α in MCF-7 cells, the Emax is ≥ 40% and the DC50 is > 100 nM.

Turning to `CC/C(=C(/c1ccc(/C=C/C(=O)O)cc1)c1ccc2[nH]ncc2c1)c1ccc2c(c1)CCO2` [Compound 256, (E)-3-(4-((E)-2-(2,3-Dihydrobenzofuran-5-yl)-1-(1H-indazol-5-yl)but-1-en-1-yl)phenyl)acrylic acid], in the experiment on MCF-7 cells, the “MCF7 Viability Assay Max Response” value is reported as “++ (++ = a single % value ≧ 40%)” and the IC50 was ≤ 100 nM. On ER-α in MCF-7 cells, the Emax is ≥ 40% and the DC50 was ≤ 100 nM.

`CC/C(=C(/c1csc(/C=C/C(=O)O)c1)c1ccc2[nH]ncc2c1)c1ccccc1` [Compound 186, (E)-3-(4-((Z)-1-(1H-Indazol-5-yl)-2-phenylbut-1-en-1-yl)thiophen-2-yl)acrylic acid]: in the experiment on MCF-7 cells, the “MCF7 Viability Assay Max Response” value is listed as “+ (+ = a single % value < 40%)” and the half-maximal inhibitory concentration (IC50) was > 100 nM. Also, the Emax on ER-α in MCF-7 cells was ≥ 40%.

For the molecule `CC/C(=C(/c1ccc(/C=C/C(=O)O)cc1)c1ccc2[nH]ncc2c1)c1cccc(Oc2ccc(C(F)(F)F)cn2)c1` [Compound 381, (E)-3-(4-((E)-1-(1H-Indazol-5-yl)-2-(3-((5-(trifluoromethyl)pyridin-2-yl)oxy)phenyl)but-1-en-1-yl)phenyl)acrylic acid], in the experiment on MCF-7 cells, the “MCF7 Viability Assay Max Response” value is “++ (++ = a single % value ≧ 40%)” and the IC50 is ≤ 100 nM. For the same molecule, at ER-α in MCF-7 cells, the Emax is ≥ 40% and the DC50 was ≤ 100 nM.

As for `CC/C(=C(/c1ccc(/C=C/C(=O)O)cc1)c1ccc2[nH]ncc2c1)c1ccc2scnc2c1` [Compound 255, (E)-3-(4-((E)-2-(Benzo[d]thiazol-5-yl)-1-(1H-indazol-5-yl)but-1-en-1-yl)phenyl)acrylic acid], in the experiment on MCF-7 cells, the “MCF7 Viability Assay Max Response” value is reported as “++ (++ = a single % value ≧ 40%)” and the half-maximal inhibitory concentration (IC50) was ≤ 100 nM. Besides, on ER-α in MCF-7 cells, the Emax was ≥ 40% and the DC50 was ≤ 100 nM.

Consider `CC/C(=C(/c1ccc(/C=C/c2nsc(=O)[nH]2)cc1)c1ccc2[nH]ncc2c1)c1ccc(F)cc1Cl` [Compound 439, 3-((E)-4-((E)-2-(2-Chloro-4-fluorophenyl)-1-(1H-indazol-5-yl)but-1-en-1-yl)styryl)-1,2,4-thiadiazol-5(4H)-one], for which, in the experiment with MCF-7 cells, the “MCF7 Viability Assay Max Response” value is “++ (++ = a single % value ≧ 40%)” and the half-maximal inhibitory concentration (IC50) was ≤ 100 nM. Also, at ER-α in MCF-7 cells, the Emax was ≥ 40% and the DC50 is ≤ 100 nM.
